Reference: article PMC5602078, “Rapid screening and identification of ACE inhibitors in snake venoms using at-line nanofractionation LC-MS” (Analytical and Bioanalytical Chemistry, 2017)
Where two headings read alike, the source gives them in different places. Where a SMILES comes first, the peptide text is derived from it. Where no end group is shown, it is not given here. [ ]: non-standard residue; d: D form. Phe(4-NO2) = N[C@@H](Cc1ccc([N+](=O)[O-])cc1)C(=O)O; pGlu = O=C1CC[C@@H](C(=O)O)N1; 2Abz = Nc1ccccc1C(=O)O

Columns and labels:
[1] = molecular target: T1, angiotensin-converting enzyme (ACE) from rabbit lung (Oryctolagus cuniculus, UniProt P12822); assay: ACE bioactivity assay, dose-response (concentration-response) curves of synthetic peptides; format: biochemical; design: angiotensin-converting enzyme (ACE) from rabbit lung; purchased Sigma-Aldrich (Zwijndrecht, The Netherlands); host or cells: rabbit lung tissue
T1 sequence (P12822 34-1310): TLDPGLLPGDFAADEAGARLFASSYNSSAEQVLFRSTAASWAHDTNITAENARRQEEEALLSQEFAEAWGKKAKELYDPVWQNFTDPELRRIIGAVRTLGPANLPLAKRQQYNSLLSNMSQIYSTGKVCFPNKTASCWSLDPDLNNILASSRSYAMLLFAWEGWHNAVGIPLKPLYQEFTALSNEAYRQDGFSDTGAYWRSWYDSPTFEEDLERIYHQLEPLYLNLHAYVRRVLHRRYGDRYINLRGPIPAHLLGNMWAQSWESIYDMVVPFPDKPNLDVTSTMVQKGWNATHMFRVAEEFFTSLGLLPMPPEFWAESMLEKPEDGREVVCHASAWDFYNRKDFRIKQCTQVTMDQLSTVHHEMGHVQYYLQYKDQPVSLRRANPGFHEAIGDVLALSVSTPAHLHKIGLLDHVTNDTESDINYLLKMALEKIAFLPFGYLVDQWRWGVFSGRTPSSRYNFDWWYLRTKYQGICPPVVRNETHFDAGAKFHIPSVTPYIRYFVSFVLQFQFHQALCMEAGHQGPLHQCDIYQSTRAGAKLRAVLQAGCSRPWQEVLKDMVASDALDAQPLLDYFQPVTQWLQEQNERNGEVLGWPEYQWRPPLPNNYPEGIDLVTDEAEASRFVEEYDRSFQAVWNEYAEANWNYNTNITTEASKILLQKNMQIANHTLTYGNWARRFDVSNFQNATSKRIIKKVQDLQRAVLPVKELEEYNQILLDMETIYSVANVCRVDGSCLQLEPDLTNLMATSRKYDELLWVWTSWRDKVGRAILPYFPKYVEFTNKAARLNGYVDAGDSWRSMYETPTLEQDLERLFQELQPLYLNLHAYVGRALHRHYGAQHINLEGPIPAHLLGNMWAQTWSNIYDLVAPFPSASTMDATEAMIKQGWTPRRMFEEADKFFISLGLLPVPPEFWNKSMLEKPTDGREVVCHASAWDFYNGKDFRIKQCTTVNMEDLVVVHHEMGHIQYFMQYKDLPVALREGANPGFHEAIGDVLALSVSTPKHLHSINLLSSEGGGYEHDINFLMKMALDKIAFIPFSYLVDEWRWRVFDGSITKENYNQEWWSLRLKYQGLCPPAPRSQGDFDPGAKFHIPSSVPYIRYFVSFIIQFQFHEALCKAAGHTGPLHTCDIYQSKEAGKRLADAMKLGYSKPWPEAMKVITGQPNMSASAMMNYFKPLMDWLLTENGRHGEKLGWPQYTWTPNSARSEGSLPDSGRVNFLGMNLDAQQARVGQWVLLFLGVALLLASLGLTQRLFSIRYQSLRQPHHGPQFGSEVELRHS
Procedure: Water was purified using a Milli-Q Plus system from Millipore (Amsterdam, The Netherlands). Acetonitrile (ACN) (ULC/MS grade) and formic acid (FA) were obtained from Biosolve (Valkenswaard, The Netherlands). […] DMSO was obtained from Riedel-de Haën (Zwijndrecht, The Netherlands).
(§1) ACE was stored at −20 °C as a 1-U/mL solution in 50% glycerol/50% 0.15 M Tris-HCl pH 8.3 supplemented with 5 mM ZnCl2. […] The assay was performed in a 0.15 M Tris-HCl buffer pH 8.3 supplemented with 0.5 M NaCl. […] This solution was then added directly to the nanofractionated plates at room temperature using a Multidrop™ 384 Reagent Dispenser (Thermo Fisher Scientific, Ermelo, The Netherlands). The final volume of the assay was 75 μL/well. The readout of the assay was fluorescence measured with a Varioskan™ Flash Multimode Reader (Thermo Fisher Scientific, Ermelo, The Netherlands) at 320 nm excitation and 420 nm emission wavelength. The measurements were performed at 37 °C after 1 h and after 2 h from the start of addition of the assay solution to the plates. Between the two time points, the plates were incubated at 37 °C. The activity of ACE in the wells was expressed as the slope of the kinetic curve that resulted from the two time point measurements. The resulting slopes were normalized and plotted in a graph versus time of each nanofraction collected using the GraphPad Prism 6 software (La Jolla, CA, USA). The slopes were normalized by dividing each slope value with the median of all the values obtained in a single measurement.
The dose-response curves of all four synthetic peptides were determined and the IC50 values for each peptide were determined in the ACE bioactivity assay.
The serial dilutions of the peptides were tested in the assay using 1 mU/mL ACE enzyme and
40 µM substrate concentration.

[2] = molecular target: T1, angiotensin-converting enzyme (ACE) from rabbit lung; conditions: Fig. S1; for Vmax: normalized response
Procedure: as §1
In the presence of an ACE inhibitor, a drop in the basal fluorescence is detected.
This was done by performing enzyme kinetic experiments using different substrate and enzyme concentrations. In total, five different enzyme concentrations (2.5, 5, 10, 20, and 40 mU) were tested in the ACE bioactivity assay, at eight substrate concentrations (5–500 μM), in a matrix fashion. […] Therefore, the results excluding the highest concentration tested (500 μM) were fitted into a Michaelis-Menten enzyme kinetic model. […] The data presented was normalized for comparison reasons (ESM Fig. S1). […] However, when using sufficiently long incubation times, low enzyme concentrations will yield a sufficient assay window for obtaining good S/N, also in combination with much lower than the Km substrate concentrations. In practice, these assay conditions allowed for two measurement points at 1 and 2 h after the beginning of the incubation resulting in repeatable slope determination of the enzymatic product formation.

[3] = molecular target: T1, angiotensin-converting enzyme (ACE) from rabbit lung; format: biochemical; design: angiotensin-converting enzyme (ACE) from rabbit lung; purchased Sigma-Aldrich (Zwijndrecht, The Netherlands); host or cells: rabbit lung tissue; conditions: peptide in bioactive wells after LC nanofractionation of crude venom, sequenced by nanoLC-MS/MS
Source text: Water was purified using a Milli-Q Plus system from Millipore (Amsterdam, The Netherlands). Acetonitrile (ACN) (ULC/MS grade) and formic acid (FA) were obtained from Biosolve (Valkenswaard, The Netherlands). […] DMSO was obtained from Riedel-de Haën (Zwijndrecht, The Netherlands). Most snake venoms were obtained commercially from Kentucky Reptile Zoo (USA), Ventoxin (USA), Biotoxin (USA), Venom Supplies (Tanunda, Australia), and African Reptiles & Venoms (Johannesburg, South Africa). The Boiga irregularis and Gloydius blomhoffii venoms were kind gifts from Prof. Steve Mackessy (University of Northern Colorado, USA) and Prof. Sadaaki Iwanaga (Kyushu University, Japan), respectively. Lyophilized venoms were kept at −20 °C. Prior to analysis, snake venoms were diluted in water to an end concentration of approximately 5.0 ± 0.1 mg/mL. After analysis, the samples were kept at −80 °C for later re-analysis.
Liquid chromatography separation was performed on a Shimadzu (‘s-Hertogenbosch, The Netherlands) UPLC system controlled via the Shimadzu Lab Solutions software. Sample injection was performed with a Shimadzu SIL-30AC autosampler using a 50-μL injection volume for RPLC separation and a 20-μL injection volume for HILIC separation. A gradient separation was performed on a Waters (Milford, MA) xBridge C18 column (100 × 4.6 mm; 5 μm) with an xBridge C18 guard column (10 × 4.6 mm; 5 μm) in RPLC mode. In HILIC mode, an Atlantis™ HILIC silica column (150 × 2.1 mm; 3 μm) was used. The columns were thermostated at 37 °C in a Shimadzu CTD-30A column oven. The solvent delivery was performed with two Shimadzu LC-30AD parallel pumps with 0.6 and 0.15 mL/min total flow rates for RPLC and HILIC separation, respectively. The mobile phases consisted of eluent A (98% H2O, 2% ACN, and 0.1% FA) and eluent B (98% ACN, 2% H2O, and 0.1% FA). The setup was optimized and validated in RPLC mode using the following gradient: a linear increase from 0 to 30% B in 20 min followed by 5-min isocratic elution at 30% B and a subsequent decrease to 0% B in 1 min with a 5-min equilibration time. The snake venoms screening for ACE activity was performed both in RPLC and HILIC mode. In the RPLC mode, venoms were analyzed using a 20-min linear gradient from 0 to 50% B followed by a linear increase to 90% B in 2 min and then a 2-min isocratic elution at 90% B before going back to 0% B in 1 min. The column was then equilibrated for 5 min. In the HILIC mode, separation started at 50% B and decreased linearly to 0% B in 20 min. This was followed by 4-min column washing at 0% B and a subsequent increase to 50% B in 1 min. The column was then equilibrated for 10 min. After the column, a flow split was introduced in a 1:9 ratio. The larger flow portion was directed to a Gilson 235P autosampler for 6-s nanofractionation onto black 384-well plates (Greiner Bio One, Alphen aan den Rijn, The Netherlands). The nanofractionated plates were subsequently dried in a Christ Rotational Vacuum Concentrator (Salm en Kipp, Breukelen, The Netherlands) RVC 2−33 CD plus and then stored at −20 °C until use. Ariadne, an in-house written software, was used to control the nanofractionation. The smaller flow portion was directed towards a Shimadzu SPD-M20A prominence diode array detector followed by a Waters Ultima quadrupole–time-of-flight (q–TOF) mass spectrometer equipped with an electrospray ionization (ESI) source. […]

`CC[C@H](C)[C@H](NC(=O)[C@@H]1CCC(=O)N1)C(=O)N[C@@H](Cc1c[nH]c2ccccc12)C(=O)N1CCC[C@H]1C(=O)N[C@@H](CCCNC(=N)N)C(=O)N1CCC[C@H]1C(=O)N[C@@H](Cc1c[nH]cn1)C(=O)N[C@H](C(=O)N1CCC[C@H]1C(=O)N1CCC[C@H]1C(=O)O)C(C)C` ([pGlu]IWPRPHVPP-OH) gave an IC50 [1] of 1010 nM.
`CC(C)C[C@H](NC(=O)[C@@H]1CCC(=O)N1)C(=O)N[C@@H](Cc1c[nH]c2ccccc12)C(=O)N1CCC[C@H]1C(=O)N[C@@H](CCCNC(=N)N)C(=O)N1CCC[C@H]1C(=O)N[C@@H](Cc1c[nH]cn1)C(=O)N[C@H](C(=O)N1CCC[C@H]1C(=O)N1CCC[C@H]1C(=O)O)C(C)C` ([pGlu]LWPRPHVPP-OH) showed an IC50 [1] of 1090 nM.
Compound `CC[C@H](C)[C@H](NC(=O)[C@@H]1CCCN1C(=O)[C@@H]1CCCN1C(=O)[C@H](CCCNC(=N)N)NC(=O)[C@@H]1CCCN1C(=O)[C@@H]1CCCN1C(=O)[C@H](Cc1c[nH]c2ccccc12)NC(=O)[C@@H]1CCCN1C(=O)[C@@H]1CCCN1C(=O)[C@H](Cc1c[nH]c2ccccc12)NC(=O)[C@@H]1CCC(=O)N1)C(=O)N1CCC[C@H]1C(=O)N1CCC[C@H]1C(=O)O` ([pGlu]WPPWPPRPPIPP-OH; C-terminus assumed) has an IC50 [1] of 3470 nM.
Compound `CC(C)C[C@H](NC(=O)[C@@H]1CCCN1C(=O)[C@@H]1CCCN1C(=O)[C@H](CCCNC(=N)N)NC(=O)[C@@H]1CCCN1C(=O)[C@@H]1CCCN1C(=O)[C@H](Cc1c[nH]c2ccccc12)NC(=O)[C@@H]1CCCN1C(=O)[C@@H]1CCCN1C(=O)[C@H](Cc1c[nH]c2ccccc12)NC(=O)[C@@H]1CCC(=O)N1)C(=O)N1CCC[C@H]1C(=O)N1CCC[C@H]1C(=O)O` ([pGlu]WPPWPPRPPLPP-OH) has an IC50 [1] of 3370 nM.
For `Nc1ccccc1C(=O)NCC(=O)N[C@@H](Cc1ccc([N+](=O)[O-])cc1)C(=O)N1CCC[C@H]1C(=O)O` [M1100, o-Aminobenzoylglycyl-p-nitro-L-phenylalanyl-L-proline] (H-[2Abz]G[Phe(4-NO2)]P-OH), the Km ([2]; 2.5 mU ACE) was 46.8 µM, the Vmax ([2]; 2.5 mU ACE) was 120.0 and the Km ([2]; 5 mU ACE) was 79.4 µM. For the same compound, the Vmax ([2]; 5 mU ACE) was 129.3, the Km ([2]; 10 mU ACE) was 56.3 µM and the Vmax ([2]; 10 mU ACE) was 122.9. It also gave a Km ([2]; 20 mU ACE) of 65.9 µM, a Vmax ([2]; 20 mU ACE) of 126.5 and a Km ([2]; 40 mU ACE) of 65.4 µM. It also gave a Vmax ([2]; 40 mU ACE) of 126.6.
[pGlu]NWPRPKVPP was tested, and the “ACE inhibitory peptide assigned to bioactivity peak (in words)” value (from here on “ACE inhibitory peptide assigned”) [3] was “ACE inhibitory peptides”.
With pE(I/L)WPRPHVPP the “ACE inhibitory peptide assigned” value [3] was “major bioactive compounds”.
In the case of pEQWPPGHH(I/L)PP, the “ACE inhibitory peptide assigned” value [3] is reported as “ACE inhibitory peptides” and the “ACE inhibitory peptide assigned” value ([3]; listed as peptide with m/z 1276) is reported as “major bioactive compounds”.
pEWPPWPPRPP(I/L)PP was tested, and the “ACE inhibitory peptide assigned” value [3] was “bioactive peptide”.
